Measurements as given in article PMC4051630, “A Comparison of Protein Kinases Inhibitor Screening Methods Using Both Enzymatic Activity and Binding Affinity Determination” (PLoS ONE, 2014).
Read-outs that look alike come from different tables or passages of the source.

Legend:
Test in all cases: Differential Scanning Fluorimetry (DSF) Tm shift
Format in all cases: binding
AKT3 Catalytic Domain = biological target: T1, AKT3 Catalytic Domain (Homo sapiens, UniProt Q9Y243); conditions: 2 µM protein, 10 µM inhibitor, average of 3 experiments, each in duplicate
T1 construct: AKT3 (Q9Y243); CD; His-tag; made in house; host or cells: Escherichia coli
T1 sequence (Q9Y243 122-479): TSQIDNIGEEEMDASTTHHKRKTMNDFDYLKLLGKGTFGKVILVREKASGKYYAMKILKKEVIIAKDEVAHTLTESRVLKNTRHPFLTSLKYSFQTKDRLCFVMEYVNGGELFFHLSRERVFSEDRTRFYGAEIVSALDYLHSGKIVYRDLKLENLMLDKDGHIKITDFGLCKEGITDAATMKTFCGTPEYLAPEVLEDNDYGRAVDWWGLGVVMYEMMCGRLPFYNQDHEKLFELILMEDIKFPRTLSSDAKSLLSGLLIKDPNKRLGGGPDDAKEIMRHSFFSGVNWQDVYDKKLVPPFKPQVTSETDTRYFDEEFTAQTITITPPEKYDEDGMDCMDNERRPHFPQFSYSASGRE

CDK2 + Cyclin A = biological target: T2, CDK2 + Cyclin A (Homo sapiens, UniProt P24941)
T2 construct: CDK2 (P24941); 1–299; His-tag; made in house; host or cells: Escherichia coli

CDK2 + Cyclin E = biological target: T3, CDK2 + Cyclin E (Homo sapiens, UniProt P24941)
T3 construct: CDK2 (P24941); 1–299; His-tag; made in house; host or cells: Escherichia coli

CHK2 Catalytic Domain = biological target: T4, CHK2 Catalytic Domain (Homo sapiens, UniProt O96017); conditions: 2 µM protein, 10 µM inhibitor, average of 3 experiments, each in duplicate
T4 construct: For all of them, we expressed and purified the catalytic domain separately; His-tag; made in house; host or cells: Escherichia coli
T4 sequence (O96017 220-486 limits assumed): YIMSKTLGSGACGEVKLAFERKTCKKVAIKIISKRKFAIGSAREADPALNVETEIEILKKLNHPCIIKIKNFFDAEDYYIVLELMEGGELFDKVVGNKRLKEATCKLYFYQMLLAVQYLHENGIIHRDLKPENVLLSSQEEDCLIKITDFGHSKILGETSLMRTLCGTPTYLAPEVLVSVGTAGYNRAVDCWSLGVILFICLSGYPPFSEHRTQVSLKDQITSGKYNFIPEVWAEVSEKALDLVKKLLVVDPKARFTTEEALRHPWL

DMPK Catalytic Domain = biological target: T5, DMPK Catalytic Domain (Homo sapiens, UniProt Q09013); conditions: 2 µM protein, 10 µM inhibitor, average of 3 experiments, each in duplicate
T5 construct: For all of them, we expressed and purified the catalytic domain separately; His-tag; made in house; host or cells: Escherichia coli
T5 sequence (Q09013 71-339 limits assumed): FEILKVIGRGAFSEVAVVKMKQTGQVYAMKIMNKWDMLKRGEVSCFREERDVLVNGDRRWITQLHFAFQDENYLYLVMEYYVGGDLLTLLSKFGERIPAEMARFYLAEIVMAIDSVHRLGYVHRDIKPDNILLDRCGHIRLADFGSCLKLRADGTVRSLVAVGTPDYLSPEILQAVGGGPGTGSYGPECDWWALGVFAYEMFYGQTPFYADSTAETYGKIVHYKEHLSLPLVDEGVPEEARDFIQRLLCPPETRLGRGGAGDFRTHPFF

FAK2 Catalytic Domain = biological target: T6, FAK2 Catalytic Domain (Homo sapiens, UniProt Q14289); conditions: 2 µM protein, 10 µM inhibitor, average of 3 experiments, each in duplicate
T6 construct: For all of them, we expressed and purified the catalytic domain separately; His-tag; made in house; host or cells: Escherichia coli
T6 sequence (Q14289 425-683 limits assumed): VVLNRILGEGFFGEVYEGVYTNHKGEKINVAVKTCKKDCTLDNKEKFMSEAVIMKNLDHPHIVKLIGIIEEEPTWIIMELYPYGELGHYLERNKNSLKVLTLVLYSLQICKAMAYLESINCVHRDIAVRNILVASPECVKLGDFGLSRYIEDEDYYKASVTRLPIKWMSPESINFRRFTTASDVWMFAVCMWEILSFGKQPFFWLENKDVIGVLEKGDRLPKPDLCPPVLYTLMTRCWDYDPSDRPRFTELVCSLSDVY

FES Catalytic Domain+SH2 = biological target: T7, FES Catalytic Domain+SH2 (Homo sapiens, UniProt P07332); conditions: 2 µM protein, 10 µM inhibitor, average of 3 experiments, each in duplicate
T7 construct: for 8, we also made a longer version containing one or more additional domains; His-tag; made in house; host or cells: Escherichia coli
T7 sequence (P07332 448-822 limits assumed): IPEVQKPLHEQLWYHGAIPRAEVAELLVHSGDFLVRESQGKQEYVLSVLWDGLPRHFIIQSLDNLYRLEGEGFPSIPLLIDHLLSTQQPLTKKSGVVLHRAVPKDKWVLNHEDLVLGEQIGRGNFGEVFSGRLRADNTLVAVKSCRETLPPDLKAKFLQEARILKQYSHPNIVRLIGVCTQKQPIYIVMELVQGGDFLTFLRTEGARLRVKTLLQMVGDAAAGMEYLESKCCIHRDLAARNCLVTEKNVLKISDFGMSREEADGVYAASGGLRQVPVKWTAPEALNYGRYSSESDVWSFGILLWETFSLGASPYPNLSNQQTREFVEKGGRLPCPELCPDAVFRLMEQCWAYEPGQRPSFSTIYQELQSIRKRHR

FES Catalytic Domain = biological target: T8, FES Catalytic Domain (Homo sapiens, UniProt P07332); conditions: 2 µM protein, 10 µM inhibitor, average of 3 experiments, each in duplicate
T8 construct: For all of them, we expressed and purified the catalytic domain separately; His-tag; made in house; host or cells: Escherichia coli
T8 sequence (P07332 561-822 limits assumed): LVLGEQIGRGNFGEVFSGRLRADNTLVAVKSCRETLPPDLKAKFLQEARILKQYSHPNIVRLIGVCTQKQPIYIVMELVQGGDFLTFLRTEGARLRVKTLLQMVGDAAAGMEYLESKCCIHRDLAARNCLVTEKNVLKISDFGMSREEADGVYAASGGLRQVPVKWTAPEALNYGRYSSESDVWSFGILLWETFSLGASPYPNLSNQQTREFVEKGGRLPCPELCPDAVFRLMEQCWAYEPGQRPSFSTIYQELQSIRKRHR

[1] = biological target: T9, PAK4 Catalytic Domain+PBD (Homo sapiens, UniProt O96013); conditions: 2 µM protein, 10 µM inhibitor, average of 3 experiments, each in duplicate
T9 construct: for 8, we also made a longer version containing one or more additional domains; His-tag; made in house; host or cells: Escherichia coli
T9 sequence (O96013 whole entry, the tested form may be a part): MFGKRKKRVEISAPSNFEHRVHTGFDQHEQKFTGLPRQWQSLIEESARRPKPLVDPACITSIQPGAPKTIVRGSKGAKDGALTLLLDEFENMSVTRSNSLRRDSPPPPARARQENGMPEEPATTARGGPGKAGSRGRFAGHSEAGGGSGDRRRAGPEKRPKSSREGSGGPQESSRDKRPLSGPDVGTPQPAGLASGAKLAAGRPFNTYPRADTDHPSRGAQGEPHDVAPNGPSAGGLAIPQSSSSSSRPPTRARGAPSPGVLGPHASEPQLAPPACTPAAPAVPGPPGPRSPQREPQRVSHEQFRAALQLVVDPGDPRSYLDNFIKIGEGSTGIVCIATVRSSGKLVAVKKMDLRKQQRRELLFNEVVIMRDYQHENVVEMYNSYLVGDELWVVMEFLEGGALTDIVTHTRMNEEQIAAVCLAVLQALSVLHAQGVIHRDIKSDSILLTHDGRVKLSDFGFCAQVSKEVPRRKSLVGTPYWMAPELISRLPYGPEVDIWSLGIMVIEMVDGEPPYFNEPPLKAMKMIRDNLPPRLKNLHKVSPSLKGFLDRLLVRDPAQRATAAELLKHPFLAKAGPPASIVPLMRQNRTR

PAK4 Catalytic Domain = biological target: T10, PAK4 Catalytic Domain (Homo sapiens, UniProt O96013); conditions: 2 µM protein, 10 µM inhibitor, average of 3 experiments, each in duplicate
T10 construct: For all of them, we expressed and purified the catalytic domain separately; His-tag; made in house; host or cells: Escherichia coli
T10 sequence (O96013 321-572 limits assumed): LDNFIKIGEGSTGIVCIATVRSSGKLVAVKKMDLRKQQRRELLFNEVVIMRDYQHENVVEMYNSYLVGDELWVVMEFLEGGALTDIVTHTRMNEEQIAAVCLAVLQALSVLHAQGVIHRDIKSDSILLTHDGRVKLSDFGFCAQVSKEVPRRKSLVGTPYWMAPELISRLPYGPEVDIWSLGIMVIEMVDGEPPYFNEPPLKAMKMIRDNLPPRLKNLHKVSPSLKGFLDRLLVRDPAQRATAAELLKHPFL

PAK7 Catalytic Domain = biological target: T11, PAK7 Catalytic Domain (Homo sapiens, UniProt Q9P286); conditions: 2 µM protein, 10 µM inhibitor, average of 3 experiments, each in duplicate
T11 construct: For all of them, we expressed and purified the catalytic domain separately; His-tag; made in house; host or cells: Escherichia coli
T11 sequence (Q9P286 449-700 limits assumed): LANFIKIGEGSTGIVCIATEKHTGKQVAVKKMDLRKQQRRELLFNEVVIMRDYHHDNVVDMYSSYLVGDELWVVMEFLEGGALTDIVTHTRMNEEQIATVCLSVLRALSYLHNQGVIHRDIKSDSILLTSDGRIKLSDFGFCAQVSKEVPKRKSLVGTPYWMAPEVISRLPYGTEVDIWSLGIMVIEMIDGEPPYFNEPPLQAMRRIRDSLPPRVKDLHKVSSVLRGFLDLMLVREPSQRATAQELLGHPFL

[2] = biological target: SRC Catalytic Domain+SH2+SH3 (Homo sapiens, UniProt P12931); conditions: 2 µM protein, 10 µM inhibitor, average of 3 experiments, each in duplicate
Chain of SRC Catalytic Domain+SH2+SH3 (P12931 84-523 limits assumed): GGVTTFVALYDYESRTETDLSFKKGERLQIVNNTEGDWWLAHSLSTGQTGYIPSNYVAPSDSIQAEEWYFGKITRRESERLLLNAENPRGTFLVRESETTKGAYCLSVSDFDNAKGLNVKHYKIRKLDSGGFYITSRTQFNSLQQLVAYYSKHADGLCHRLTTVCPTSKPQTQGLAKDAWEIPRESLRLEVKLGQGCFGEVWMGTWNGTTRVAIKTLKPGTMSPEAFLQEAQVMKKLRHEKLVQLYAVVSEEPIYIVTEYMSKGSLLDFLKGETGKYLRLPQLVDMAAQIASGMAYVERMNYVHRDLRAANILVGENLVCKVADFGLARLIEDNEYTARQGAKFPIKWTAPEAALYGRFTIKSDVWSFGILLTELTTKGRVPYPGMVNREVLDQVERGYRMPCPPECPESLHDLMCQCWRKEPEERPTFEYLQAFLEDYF

[3] = biological target: T12, STK3 Catalytic domain+SARAH (Homo sapiens, UniProt Q13188); conditions: 2 µM protein, 10 µM inhibitor, average of 3 experiments, each in duplicate
T12 construct: for 8, we also made a longer version containing one or more additional domains; His-tag; made in house; host or cells: Escherichia coli
T12 sequence (Q13188 1-491): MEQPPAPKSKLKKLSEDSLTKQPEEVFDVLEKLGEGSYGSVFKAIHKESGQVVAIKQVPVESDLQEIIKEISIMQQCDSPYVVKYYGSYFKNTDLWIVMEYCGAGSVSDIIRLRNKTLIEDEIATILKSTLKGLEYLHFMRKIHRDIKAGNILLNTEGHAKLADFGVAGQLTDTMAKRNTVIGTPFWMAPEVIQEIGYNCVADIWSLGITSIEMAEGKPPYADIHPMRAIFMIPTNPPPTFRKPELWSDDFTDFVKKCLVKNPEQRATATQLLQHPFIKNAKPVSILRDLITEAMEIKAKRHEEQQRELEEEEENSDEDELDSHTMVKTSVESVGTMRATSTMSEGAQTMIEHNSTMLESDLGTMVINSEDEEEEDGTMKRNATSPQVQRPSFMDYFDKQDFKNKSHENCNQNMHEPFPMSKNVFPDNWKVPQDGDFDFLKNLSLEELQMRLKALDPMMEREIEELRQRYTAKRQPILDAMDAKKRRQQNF

STK3 Catalytic Domain = biological target: T13, STK3 Catalytic Domain (Homo sapiens, UniProt Q13188); conditions: 2 µM protein, 10 µM inhibitor, average of 3 experiments, each in duplicate
T13 construct: For all of them, we expressed and purified the catalytic domain separately; His-tag; made in house; host or cells: Escherichia coli
T13 sequence (Q13188 27-278 limits assumed): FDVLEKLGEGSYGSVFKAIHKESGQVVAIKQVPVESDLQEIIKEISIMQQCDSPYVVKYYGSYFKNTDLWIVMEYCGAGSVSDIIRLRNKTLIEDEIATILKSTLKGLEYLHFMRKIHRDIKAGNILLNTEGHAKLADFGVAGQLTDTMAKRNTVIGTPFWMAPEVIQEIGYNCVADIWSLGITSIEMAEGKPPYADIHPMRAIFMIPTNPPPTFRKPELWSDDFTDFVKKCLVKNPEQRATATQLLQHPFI

SRC Catalytic Domain = SRC Catalytic Domain (Homo sapiens, UniProt P12931); parameters: For all of them, we expressed and purified the catalytic domain separately; His-tag; made in house; host or cells: Escherichia coli; conditions: 2 µM protein, 10 µM inhibitor, average of 3 experiments, each in duplicate
Chain of SRC Catalytic Domain (P12931 270-523 limits assumed): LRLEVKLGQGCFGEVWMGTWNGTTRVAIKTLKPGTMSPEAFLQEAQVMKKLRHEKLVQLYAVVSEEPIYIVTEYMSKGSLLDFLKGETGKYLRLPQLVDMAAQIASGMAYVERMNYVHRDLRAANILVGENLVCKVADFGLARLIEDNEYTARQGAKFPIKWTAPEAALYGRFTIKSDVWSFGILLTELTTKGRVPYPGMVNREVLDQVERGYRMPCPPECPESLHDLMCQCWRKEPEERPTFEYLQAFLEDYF

[4] = CDK2 + Cyclin A, 2 µM protein, 10 µM inhibitor, average of 3 experiments, each in duplicate
[5] = CDK2 + Cyclin E, 2 µM protein, 10 µM inhibitor, average of 3 experiments, each in duplicate

SMILES | Melting temperature (Tm) shift (AKT3 Catalytic Domain) [degrees Celcius] | Melting temperature (Tm) shift (CDK2 + Cyclin A; [4]) [degrees Celcius] | Melting temperature (Tm) shift (CDK2 + Cyclin E; [5]) [degrees Celcius] | Melting temperature (Tm) shift (CHK2 Catalytic Domain) [degrees Celcius] | Melting temperature (Tm) shift (DMPK Catalytic Domain) [degrees Celcius] | Melting temperature (Tm) shift (FAK2 Catalytic Domain) [degrees Celcius] | Melting temperature (Tm) shift (FES Catalytic Domain+SH2) [degrees Celcius] | Melting temperature (Tm) shift (FES Catalytic Domain) [degrees Celcius] | Melting temperature (Tm) shift [1] [degrees Celcius] | Melting temperature (Tm) shift (PAK4 Catalytic Domain) [degrees Celcius] | Melting temperature (Tm) shift (PAK7 Catalytic Domain) [degrees Celcius] | Melting temperature (Tm) shift [2] [degrees Celcius] | Melting temperature (Tm) shift [3] [degrees Celcius] | Melting temperature (Tm) shift (STK3 Catalytic Domain) [degrees Celcius] | Melting temperature (Tm) shift (SRC Catalytic Domain) [degrees Celcius] | Melting temperature (Tm) shift (CDK2 + Cyclin A) | Melting temperature (Tm) shift (CDK2 + Cyclin E)
O=C1Cc2c([nH]c3ccc(Br)cc23)-c2ccccc2N1 [Kenpaullone] | 0.0 | 0.4 | 0.3 | 3.4 | 1.9 | 0.3 | 0.0 | 0.4 | 3.6 | 1.4 | 0.7 | 0.2 | 1.5 | 0.7 | 0.4 |  | 
Cc1[nH]c(/C=C2\C(=O)Nc3ccc(S(=O)(=O)N(C)c4cccc(Cl)c4)cc32)c(C)c1C(=O)N1CCN(C)CC1 [Met Kinase Inhibitor] | 0.0 |  |  | 1.2 | 1.2 | 0.1 | 0.1 | 0.6 | 0.3 | 0.9 | 0.2 | 0.2 | 0.9 | 0.7 | 0.3 | 0.4 | 0.1
Cc1ccc([N+](=O)[O-])cc1S(=O)(=O)N(C)N=Cc1cnc2ccc(Br)cn12.Cl.O.O [PI 3-Kα Inhibitor VIII] | 1.3 | 4.2 | 0.7 | 2.5 | 3.1 | 1.6 | 1.4 | 3.1 | 2.1 | 3.0 | 1.8 | 0.9 | 4.2 | 2.7 | 0.7 |  | 
O=C1NC(=O)C(=Cc2cccc(C(F)(F)F)c2)S1 [PIM1/2 Kinase Inhibitor V] | 0.1 | 0.3 | 0.2 | 0.5 | 0.1 | 0.2 | 0.4 | 0.5 | 0.4 | 0.2 | 0.1 | 0.2 | 0.4 | 0.2 | 0.1 |  | 
O=C1Nc2ccc3ncsc3c2/C1=C/c1cnc[nH]1 [PKR Inhibitor] | 0.3 | 4.4 | 4.3 | 4.0 | 0.8 | 1.1 | 0.7 | 3.2 | 1.8 | 1.9 | 1.9 | 0.3 | 7.0 | 4.9 | 0.7 |  | 
Cl.Cl.NCCNc1ncc(C(N)=O)c(Nc2cccc(C(F)(F)F)c2)n1 [Syk Inhibitor II] | 0.0 | 0.5 | 0.6 | 4.7 | 0.7 | 1.9 | 1.3 | 3.1 | 4.8 | 4.7 | 5.1 | 0.4 | 1.3 | 1.6 | 0.1 |  | 
Cn1cc(/C=C2\C(=O)Nc3ccc(S(N)(=O)=O)cc32)c2ccccc21 [Syk Inhibitor] | 0.0 | 0.7 | 0.4 | 5.2 | 0.9 | 0.4 | 0.4 | 2.0 | 2.2 | 1.7 | 0.9 | 0.2 | 2.0 | 2.0 | 0.1 |  | 
